# Columns and labels:
# [1] = system: brains, heart, liver, muscle, and DRG of the NHPs; experiment: Maturation of TTM-001 and TTM-002 capsids, NGS enrichment in NHP tissues; format: in vivo; settings: relative to AAV9 control
# In short: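 Variants carry mutations within and flanking the loop IV peptide insert: positions 450–466 were triplet-randomized, while positions 449–466 received low-frequency point mutations. The combined pool went into two NHPs, and each peptide was scored by NGS enrichment ratio against AAV9.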
# brain [2] = experiment: Matured TTM-001 and TTM-002 variants, NGS enrichment in mouse brain; format: in vivo, mice; settings: relative to AAV9 control
# [3] = system: brain, spinal cord, and DRG of the NHPs; experiment: NGS fold enrichment of synthetic library (passage 3) in NHPs, first cross-species screen; format: in vivo, cynomolgus macaques (Macaca fascicularis); settings: synthetic library passage 3, intravenous, relative to wild-type AAV9
# In short: (§1)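 Fold enrichment versus wild-type AAV9 was derived by NGS of RT-PCR-amplified RNA from nervous tissue, collected e.g. 28 days after IV dosing […]. The library (passage 3) was given to two NHPs aged 2-4 years and to 6-8-week BALB/c and C57Bl/6 mice (n=3 each).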
# brain [4] = experiment: NGS fold enrichment of synthetic library (passage 3) in BALB/c mice, first cross-species screen; format: in vivo; settings: synthetic library passage 3, intravenous, relative to wild-type AAV9
# In short: as §1
# brain [5] = experiment: NGS fold enrichment of synthetic library (passage 3) in C57Bl/6 mice, first cross-species screen; format: in vivo; settings: synthetic library passage 3, intravenous, relative to wild-type AAV9
# In short: as §1
# [6] = NGS fold-enrichment of RNA, NHP brain
# [7] = NGS fold-enrichment, DRG of NHPs
# [8] = NGS fold-enrichment, NHP liver DNA
# [9] = NGS fold-enrichment, NHP liver RNA
# [10] = NGS fold-enrichment, NHP muscle
# [11] = NGS fold-enrichment, RNA, brain of NHPs
# [12] = NGS fold-enrichment, heart of NHPs
# [13] = NGS fold-enrichment, liver DNA of NHPs
# [14] = NGS fold-enrichment, liver RNA of NHPs
# [15] = NGS fold-enrichment, muscle of NHPs
# [16] = NGS fold-enrichment, brain of mice
# [17] = NGS fold-enrichment, mouse brain
sequence,measurement,setting,value
KELHGSGSPHSKAQNQQT,"Fold Enrichment relative to AAV9, Brain (NHP)",[1]; [6],102.680 fold
same,"Fold Enrichment relative to AAV9, DRG (NHP)",[1]; [7],0.000 fold
same,"Fold Enrichment relative to AAV9, DRG (NHP)","[1]; NGS fold-enrichment, NHP DRG",0.000 fold
same,"Fold Enrichment relative to AAV9, Heart (NHP)","[1]; NGS fold-enrichment, NHP heart",0.000 fold
same,"Fold Enrichment relative to AAV9, Liver DNA (NHP)",[1]; [8],0.592 fold
same,"Fold Enrichment relative to AAV9, Liver RNA (NHP)",[1]; [9],1.634 fold
same,"Fold Enrichment relative to AAV9, Muscle (NHP)",[1]; [10],0.000 fold
same,"Fold Enrichment relative to AAV9, Brain (NHP)",[1]; [11],102.680 fold
same,"Fold Enrichment relative to AAV9, Heart (NHP)",[1]; [12],0.000 fold
same,"Fold Enrichment relative to AAV9, Liver DNA (NHP)",[1]; [13],0.592 fold
same,"Fold Enrichment relative to AAV9, Liver RNA (NHP)",[1]; [14],1.634 fold
same,"Fold Enrichment relative to AAV9, Muscle (NHP)",[1]; [15],0.000 fold
same,"Fold Enrichment relative to AAV9, Brain (Mouse)",brain [2]; [16],96.554 fold
same,"Fold Enrichment relative to AAV9, Brain (Mouse)",brain [2]; [17],96.554 fold
KSINGHDSPHKSGQRQHT,"Fold Enrichment relative to AAV9, Brain (NHP)",[1]; [6],80.132 fold
same,"Fold Enrichment relative to AAV9, DRG (NHP)","[1]; NGS fold-enrichment, NHP DRG",0.000 fold
same,"Fold Enrichment relative to AAV9, Heart (NHP)","[1]; NGS fold-enrichment, NHP heart",0.357 fold
same,"Fold Enrichment relative to AAV9, Liver DNA (NHP)",[1]; [8],0.000 fold
same,"Fold Enrichment relative to AAV9, Liver RNA (NHP)",[1]; [9],0.000 fold
same,"Fold Enrichment relative to AAV9, Muscle (NHP)",[1]; [10],0.000 fold
same,"Fold Enrichment relative to AAV9, Brain (Mouse)",brain [2]; [17],9.851 fold
KTDRTSGSPHSKAQNQQT,"Fold Enrichment relative to AAV9, Brain (NHP)","[1]; NGS fold-enrichment of matured AAV capsid variants, NHP brain, RNA",56.466 fold
same,"Fold Enrichment relative to AAV9, DRG (NHP)",[1]; NHP DRG,0.000 fold
same,"Fold Enrichment relative to AAV9, Heart (NHP)",[1]; NHP heart,0.000 fold
same,"Fold Enrichment relative to AAV9, Liver DNA (NHP)","[1]; NHP liver, DNA",0.160 fold
same,"Fold Enrichment relative to AAV9, Liver RNA (NHP)","[1]; NHP liver, RNA",0.062 fold
same,"Fold Enrichment relative to AAV9, Muscle (NHP)",[1]; NHP muscle,0.000 fold
same,"Fold Enrichment relative to AAV9, Brain (Mouse)",brain [2]; mouse brain,148.498 fold
KTINGSVSPHGKAQNQLT (peptide inserted in AAV capsid),"Fold Enrichment relative to AAV9, DRG (NHP)",[1]; [7],0.000 fold
same,"Fold Enrichment relative to AAV9, Brain (NHP)",[1]; [11],73.525 fold
same,"Fold Enrichment relative to AAV9, Heart (NHP)",[1]; [12],0.061 fold
same,"Fold Enrichment relative to AAV9, Liver DNA (NHP)",[1]; [13],0.053 fold
same,"Fold Enrichment relative to AAV9, Liver RNA (NHP)",[1]; [14],0.000 fold
same,"Fold Enrichment relative to AAV9, Muscle (NHP)",[1]; [15],0.067 fold
same,"Fold Enrichment relative to AAV9, Brain (Mouse)",brain [2]; [16],51.358 fold
GSGQNQQQIGGNST,Fold enrichment over AAV9 in the brain of NHPs,"[3]; RNA NGS, brain of NHPs",1.741 fold
same,Fold enrichment over AAV9 in the spinal cord of NHPs,"[3]; RNA NGS, spinal cord of NHPs",6.169 fold
same,Fold enrichment over AAV9 in the brain of Mice (BALB/c),"brain [4]; RNA NGS, brain of BALB/c mice",0.576 fold
same,Fold enrichment over AAV9 in the brain of Mice (C57Bl/6),"brain [5]; RNA NGS, brain of C57Bl/6 mice",0.877 fold
GSGERLHLTQNQQT,Fold enrichment over AAV9 in the brain of NHPs,"[3]; RNA NGS, brain of NHPs",1.885 fold
same,Fold enrichment over AAV9 in the spinal cord of NHPs,"[3]; RNA NGS, spinal cord of NHPs",1.456 fold
same,Fold enrichment over AAV9 in the brain of Mice (BALB/c),"brain [4]; RNA NGS, brain of BALB/c mice",0.245 fold
same,Fold enrichment over AAV9 in the brain of Mice (C57Bl/6),"brain [5]; RNA NGS, brain of C57Bl/6 mice",0.387 fold
GFAHQASSGQNQQT,Fold enrichment over AAV9 in the brain of NHPs,"[3]; RNA NGS, brain of NHPs",1.587 fold
same,Fold enrichment over AAV9 in the spinal cord of NHPs,"[3]; RNA NGS, spinal cord of NHPs",1.852 fold
same,Fold enrichment over AAV9 in the brain of Mice (BALB/c),"brain [4]; RNA NGS, brain of BALB/c mice",1.080 fold
same,Fold enrichment over AAV9 in the brain of Mice (C57Bl/6),"brain [5]; RNA NGS, brain of C57Bl/6 mice",1.638 fold
GSGQNQQTSLQDQT,Fold enrichment over AAV9 in the brain of NHPs,"[3]; RNA NGS, brain of NHPs",2.505 fold
same,Fold enrichment over AAV9 in the spinal cord of NHPs,"[3]; RNA NGS, spinal cord of NHPs",0.500 fold
same,Fold enrichment over AAV9 in the brain of Mice (BALB/c),"brain [4]; RNA NGS, brain of BALB/c mice",0.968 fold
same,Fold enrichment over AAV9 in the brain of Mice (C57Bl/6),"brain [5]; RNA NGS, brain of C57Bl/6 mice",0.315 fold
GSGLGMSTGQNQQT,Fold enrichment over AAV9 in the brain of NHPs,"[3]; RNA NGS, brain of NHPs",3.110 fold
same,Fold enrichment over AAV9 in the spinal cord of NHPs,"[3]; RNA NGS, spinal cord of NHPs",5.499 fold
same,Fold enrichment over AAV9 in the brain of Mice (BALB/c),"brain [4]; RNA NGS, brain of BALB/c mice",0.660 fold
same,Fold enrichment over AAV9 in the brain of Mice (C57Bl/6),"brain [5]; RNA NGS, brain of C57Bl/6 mice",0.458 fold
GSGQNLHSGLPQQT,Fold enrichment over AAV9 in the brain of NHPs,"[3]; RNA from brain of NHPs, NGS",1.363 fold
same,Fold enrichment over AAV9 in the spinal cord of NHPs,"[3]; RNA from spinal cord of NHPs, NGS",1.594 fold
same,Fold enrichment over AAV9 in the brain of Mice (BALB/c),"brain [4]; RNA from brain of BALB/c mice, NGS",0.592 fold
same,Fold enrichment over AAV9 in the brain of Mice (C57Bl/6),"brain [5]; RNA from brain of C57Bl/6 mice, NGS",1.054 fold
GSGQVVGLSGNQQT,Fold enrichment over AAV9 in the brain of NHPs,"[3]; RNA NGS, brain of NHPs",2.052 fold
same,Fold enrichment over AAV9 in the spinal cord of NHPs,"[3]; RNA NGS, spinal cord of NHPs",7.212 fold
same,Fold enrichment over AAV9 in the brain of Mice (BALB/c),"brain [4]; RNA NGS, brain of BALB/c mice",0.881 fold
same,Fold enrichment over AAV9 in the brain of Mice (C57Bl/6),"brain [5]; RNA NGS, brain of C57Bl/6 mice",0.785 fold
